# PubChem BioAssay (NCI)
#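 48-hour exposure; five concentrations; linearly interpolated endpoints. Here, GI50 denotes the concentration required for 50% inhibition of growth. The concentration for full growth arrest is given as TGI.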
# How the values were obtained:
# Assay in all cases: growth of human tumour cells (NCI), 48 h
# [1] = tested on: OVCAR-5 ovarian
# [2] = tested on: CAKI-1 renal
# [3] = tested on: SNB-75 CNS
# [4] = tested on: 786-0 renal
# [5] = tested on: NCI-H522 lung
# [6] = tested on: MCF7 breast
# [7] = tested on: NCI/ADR-RES ovarian
# [8] = tested on: MDA-MB-231 breast
# [9] = tested on: NCI-H226 lung
# [10] = tested on: SF-268 CNS
# [11] = tested on: UACC-62 melanoma
# [12] = tested on: OVCAR-8 ovarian
# [13] = tested on: SR leukemia
# [14] = tested on: PC-3 prostate
# [15] = tested on: A498 renal
# [16] = tested on: CCRF-CEM leukemia
# [17] = tested on: LOX IMVI melanoma
# [18] = tested on: KM12 colon
# [19] = tested on: IGROV1 ovarian
# [20] = tested on: SK-MEL-28 melanoma
# [21] = tested on: SN12C renal
# [22] = tested on: HOP-92 NSCLC
# [23] = tested on: UO-31 renal
# [24] = tested on: HOP-62 NSCLC
# [25] = tested on: SNB-19 CNS
# [26] = tested on: HCT-116 colon
# [27] = tested on: DU-145 prostate
# [28] = tested on: HL-60(TB) leukemia
# [29] = tested on: NCI-H460 lung
# [30] = tested on: HS 578T breast
# [31] = tested on: SF-295 CNS
# [32] = tested on: EKVX NSCLC
# [33] = tested on: SF-539 CNS
# [34] = tested on: BT-549 breast
# [35] = tested on: K-562 leukemia
# [36] = tested on: HCC-2998 colon
# [37] = tested on: U251 CNS
# [38] = tested on: MDA-MB-468 breast
# [39] = tested on: TK-10 renal
# [40] = tested on: HCT-15 colon
# [41] = tested on: ACHN renal
# [42] = tested on: SK-MEL-5 melanoma
# [43] = tested on: T-47D breast
# [44] = tested on: M14 melanoma
# [45] = tested on: RXF 393 renal
# [46] = tested on: NCI-H23 lung
# [47] = tested on: SK-MEL-2 melanoma
# [48] = tested on: COLO 205 colon
# [49] = tested on: HT29 colon
# [50] = tested on: MOLT-4 leukemia
# [51] = tested on: RPMI-8226 leukemia
# [52] = tested on: MALME-3M melanoma
# [53] = tested on: A549 NSCLC
# [54] = tested on: OVCAR-4 ovarian
# [55] = tested on: UACC-257 melanoma
# [56] = tested on: SW-620 colon
# [57] = tested on: SK-OV-3 ovarian
# [58] = tested on: OVCAR-3 ovarian
# [59] = tested on: MDA-MB-435
smiles,measurement,setting,value
N#Cc1ccc(/C=N/NC(=O)c2[nH]c3ccc(Br)cc3c2-c2ccccc2)o1,GI50,[1],0.406 µM
same,TGI,[1],21.1 µM
same,GI50,[2],0.427 µM
same,TGI,[2],16.2 µM
same,GI50,[3],0.369 µM
same,TGI,[3],14.6 µM
same,GI50,[4],0.308 µM
same,TGI,[4],10.1 µM
same,GI50,[5],0.0914 µM
same,TGI,[5],0.34 µM
same,GI50,[6],0.306 µM
same,TGI,[6],16.7 µM
same,GI50,[7],0.136 µM
same,TGI,[7],0.408 µM
same,GI50,[8],0.246 µM
same,TGI,[8],0.655 µM
same,GI50,[9],1.11 µM
same,TGI,[9],27.5 µM
same,GI50,[10],0.611 µM
same,TGI,[10],20.3 µM
same,GI50,[11],0.392 µM
same,TGI,[11],17.9 µM
same,GI50,[12],0.226 µM
same,TGI,[12],0.624 µM
same,GI50,[13],0.152 µM
same,GI50,[14],0.482 µM
same,TGI,[14],19.7 µM
same,GI50,[15],15.6 µM
same,TGI,[15],42.3 µM
same,GI50,[16],0.295 µM
same,TGI,[16],> 54.5 µM
same,GI50,[17],0.124 µM
same,TGI,[17],11.6 µM
same,GI50,[18],0.315 µM
same,TGI,[18],11.3 µM
same,GI50,[19],0.404 µM
same,TGI,[19],16.6 µM
same,GI50,[20],0.806 µM
same,TGI,[20],21.1 µM
same,GI50,[21],0.389 µM
same,TGI,[21],12.6 µM
same,GI50,[22],2.12 µM
same,TGI,[22],18.2 µM
same,GI50,[23],0.454 µM
same,TGI,[23],15.4 µM
same,GI50,[24],0.35 µM
same,TGI,[24],13.5 µM
same,GI50,[25],0.394 µM
same,TGI,[25],17 µM
same,GI50,[26],0.198 µM
same,TGI,[26],11.7 µM
same,GI50,[27],0.379 µM
same,TGI,[27],14.8 µM
same,GI50,[28],0.196 µM
same,TGI,[28],2.78 µM
same,GI50,[29],0.347 µM
same,TGI,[29],10.7 µM
same,GI50,[30],0.313 µM
same,TGI,[30],20.1 µM
same,GI50,[31],0.321 µM
same,TGI,[31],13.3 µM
same,GI50,[32],0.496 µM
same,TGI,[32],27.3 µM
same,GI50,[33],0.212 µM
same,TGI,[33],0.527 µM
same,GI50,[34],0.243 µM
same,TGI,[34],3.22 µM
same,GI50,[35],0.128 µM
same,TGI,[35],15 µM
same,GI50,[36],0.278 µM
same,TGI,[36],2.62 µM
same,GI50,[37],0.33 µM
same,TGI,[37],12.3 µM
same,GI50,[38],0.318 µM
same,TGI,[38],14.1 µM
same,GI50,[39],7.32 µM
same,TGI,[39],26.9 µM
same,GI50,[40],0.333 µM
same,TGI,[40],13.7 µM
same,GI50,[41],0.42 µM
same,TGI,[41],13.4 µM
same,GI50,[42],0.272 µM
same,TGI,[42],0.77 µM
same,GI50,[43],4.66 µM
same,TGI,[43],32.9 µM
same,GI50,[44],0.324 µM
same,TGI,[44],22.7 µM
same,GI50,[45],0.486 µM
same,TGI,[45],14.7 µM
same,GI50,[46],0.338 µM
same,TGI,[46],14 µM
same,GI50,[47],0.294 µM
same,TGI,[47],13.5 µM
same,GI50,[48],0.198 µM
same,TGI,[48],0.371 µM
same,GI50,[49],0.204 µM
same,TGI,[49],2.52 µM
same,GI50,[50],0.352 µM
same,TGI,[50],32.7 µM
same,GI50,[51],0.369 µM
same,TGI,[51],27.9 µM
same,GI50,[52],0.434 µM
same,TGI,[52],22.2 µM
same,GI50,[53],0.383 µM
same,TGI,[53],14 µM
same,GI50,[54],1.1 µM
same,TGI,[54],25.3 µM
same,GI50,[55],1.19 µM
same,TGI,[55],19.7 µM
same,GI50,[56],0.421 µM
same,TGI,[56],20.1 µM
same,GI50,[57],0.513 µM
same,TGI,[57],22.5 µM
O=C(CSc1nc2ccccc2c(=O)n1-c1ccc(Cl)cc1)Nc1ccc(-c2nc3ccc([N+](=O)[O-])cc3[nH]2)cc1,GI50,[1],2.65 µM
same,TGI,[1],20.5 µM
same,GI50,[2],12 µM
same,TGI,[2],> 100 µM
same,GI50,[3],2.03 µM
same,TGI,[3],8.21 µM
same,GI50,[4],2.91 µM
same,TGI,[4],8.4 µM
same,GI50,[5],1.82 µM
same,TGI,[5],4.65 µM
same,GI50,[6],1.18 µM
same,TGI,[6],5.09 µM
same,GI50,[7],5.29 µM
same,TGI,[7],> 100 µM
same,GI50,[8],1.82 µM
same,TGI,[8],4.62 µM
same,GI50,[58],2.53 µM
same,TGI,[58],7.43 µM
same,GI50,[9],1.77 µM
same,TGI,[9],4.04 µM
same,GI50,[10],4.62 µM
same,TGI,[10],> 100 µM
same,GI50,[11],1.76 µM
same,TGI,[11],4.78 µM
same,GI50,[12],1.08 µM
same,TGI,[12],2.75 µM
same,GI50,[13],2.16 µM
same,TGI,[13],24.1 µM
same,GI50,[14],1.79 µM
same,TGI,[14],7.01 µM
same,GI50,[15],3.23 µM
same,TGI,[15],12.9 µM
same,GI50,[16],13.5 µM
same,TGI,[16],> 100 µM
same,GI50,[17],1.44 µM
same,TGI,[17],3.04 µM
same,GI50,[18],10.2 µM
same,TGI,[18],> 100 µM
same,GI50,[19],1.87 µM
same,TGI,[19],5 µM
same,GI50,[20],1.72 µM
same,TGI,[20],3.87 µM
same,GI50,[21],1.58 µM
same,TGI,[21],4.21 µM
same,GI50,[22],1.75 µM
same,TGI,[22],6.07 µM
same,GI50,[23],30 µM
same,TGI,[23],> 100 µM
same,GI50,[24],1.26 µM
same,TGI,[24],3 µM
same,GI50,[25],2.33 µM
same,TGI,[25],8.77 µM
same,GI50,[26],2.9 µM
same,TGI,[26],> 100 µM
same,GI50,[27],3.79 µM
same,TGI,[27],> 100 µM
same,GI50,[28],28.1 µM
same,TGI,[28],> 100 µM
same,GI50,[29],1.56 µM
same,TGI,[29],3.9 µM
same,GI50,[30],1.6 µM
same,TGI,[30],4.57 µM
same,GI50,[31],1.73 µM
same,TGI,[31],4.56 µM
same,GI50,[32],1.91 µM
same,TGI,[32],5.7 µM
same,GI50,[33],1.9 µM
same,TGI,[33],4.06 µM
same,GI50,[34],1.84 µM
same,TGI,[34],6.61 µM
same,GI50,[59],2.98 µM
same,TGI,[59],13.1 µM
same,GI50,[35],2.63 µM
same,TGI,[35],> 100 µM
same,GI50,[36],2.95 µM
same,TGI,[36],15.2 µM
same,GI50,[37],1.59 µM
same,TGI,[37],3.58 µM
same,GI50,[38],1.4 µM
same,TGI,[38],3.2 µM
same,GI50,[39],3.61 µM
same,TGI,[39],20.5 µM
same,GI50,[40],2.77 µM
same,TGI,[40],> 100 µM
same,GI50,[41],3.1 µM
same,TGI,[41],21.2 µM
same,GI50,[42],3.01 µM
same,TGI,[42],11.7 µM
same,GI50,[43],1.41 µM
same,TGI,[43],3.56 µM
same,GI50,[44],2.32 µM
same,TGI,[44],8.05 µM
same,GI50,[45],1.5 µM
same,TGI,[45],3.69 µM
same,GI50,[46],1.8 µM
same,TGI,[46],5.36 µM
same,GI50,[47],1.95 µM
same,TGI,[47],5.31 µM
same,GI50,[48],2.34 µM
same,TGI,[48],6.07 µM
same,GI50,[49],2.83 µM
same,TGI,[49],11.4 µM
same,GI50,[50],3.21 µM
same,TGI,[50],> 100 µM
same,GI50,[51],4.4 µM
same,TGI,[51],> 100 µM
same,GI50,[52],2.18 µM
same,TGI,[52],7.44 µM
same,GI50,[53],1.88 µM
same,TGI,[53],6.81 µM
same,GI50,[54],1.59 µM
same,TGI,[54],5.11 µM
same,GI50,[55],1.69 µM
same,TGI,[55],4.95 µM
same,GI50,[56],3.52 µM
same,TGI,[56],74.1 µM
same,GI50,[57],2.82 µM
same,TGI,[57],32.7 µM
